Laboratory results published in patent US8987195B2 (priority 2012, dated 2015).
Read-outs that look alike come from different tables or passages of the source.

Assays:
HCV genotype 1b replicon = assay: HCV replicon assay, genotype 1b replicon EC50; assay type: cell-based, Hepatitis C virus; conditions: Hepatitis C virus, read-out: EC50 [gt-1b]
Procedure, shortened: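 Stable neomycin phosphotransferase-encoding replicon cell lines, kept under G418 selection beforehand, were plated with a compound dilution series without G418 and incubated 24-48 hours. Replicon RNA was then quantified, or luciferase activity read. EC50 was calculated as percent of DMSO control by four-parameter fit.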

[1] = target: HCV NS3/4A protease genotype 1b (Hepatitis C virus genotype 1b, UniProt P26663); assay: HCV NS3/4A protease time-resolved fluorescence (TRF) assay, Ki against genotype 1b; assay type: biochemical
Procedure, shortened: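 Ki was converted from fitted IC50 using IC50=Ki(1+[S]/KM) and 25 nM substrate. Protease (genotype 1b 0.2 nM, A156T 0.4 nM, 3a 0.025 nM) and compound were pre-mixed 30 min in pH 7.5 HEPES/NaCl/glycerol/DTT buffer. Cleavage then proceeded 2.5 h at room temperature, detected by time-resolved europium fluorescence (340/615 nm).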

[2] = IC50 [gt-1b] (nM), NS3/4A genotype 1b, enzyme 0.2 nM
[3] = IC50 [gt-1b], NS3/4A protease TRF assay, genotype 1b enzyme 0.2 nM

Compound	EC50 (HCV genotype 1b replicon; genotype 1b replicon)	IC50 [1, 2]	other results
COc1ccc2nc(C(C)C)c3c(c2c1)C(F)(F)C[C@]1(C[C@H]2C(=O)N[C@]4(C(=O)NS(=O)(=O)C5(C)CC5)C[C@H]4/C=C\CCCCC[C@H](NC(=O)OC4CCCC4)C(=O)N2C1)O3 [Example 210, cyclopentyl [(2S,6S,12Z,13aS,14aR,16aS)-1′,1′-difluoro-9′-methoxy-14a-{[(1-methylcyclopropyl)sulfonyl]carbamoyl}-5,16-dioxo-5′-(propan-2-yl)-1,1′,2′,5,6,7,8,9,10,11,13a,14,14a,15,16,16a-hexadecahydrospiro[cyclopropa[e]pyrrolo[1,2-a][1,4]diazacyclopentadecine-2,3′-pyrano[2,3-c]quinolin]-6-yl]carbamate]	2.38 nM	0.008 nM	–
Cc1nc2ccccc2c2c1O[C@]1(CC2)C[C@H]2C(=O)N[C@]3(C(=O)NS(=O)(=O)C4(C)CC4)C[C@H]3/C=C\CCCCC[C@H](NC(=O)OC3(C4CC4)CC3)C(=O)N2C1 [Example 131, 1,1′-bi(cyclopropyl)-1-yl [(2R,6S,12Z,13aS,14aR,16aS)-5′-methyl-14a-{[(1-methylcyclopropyl)sulfonyl]carbamoyl}-5,16-dioxo-1,1′,2′,5,6,7,8,9,10,11,13a,14,14a,15,16,16a-hexadecahydrospiro[cyclopropa[e]pyrrolo[1,2-a][1,4]diazacyclopentadecine-2,3′-pyrano[2,3-c]quinolin]-6-yl]carbamate]	1.28 nM	0.003 nM	–
Cc1nc2ccc(Cl)cc2c2c1O[C@]1(CC2)C[C@H]2C(=O)N[C@]3(C(=O)NS(=O)(=O)C4(C)CC4)C[C@H]3/C=C\CCCCC[C@H](NC(=O)OCC3CC3)C(=O)N2C1 [Example 222, cyclopropylmethyl [(2R,6S,12Z,13aS,14aR,16aS)-9′-chloro-5′-methyl-14a-{[(1-methylcyclopropyl)sulfonyl]carbamoyl}-5,16-dioxo-1,1′,2′,5,6,7,8,9,10,11,13a,14,14a,15,16,16a-hexadecahydrospiro[cyclopropa[e]pyrrolo[1,2-a][1,4]diazacyclopentadecine-2,3′-pyrano[2,3-c]quinolin]-6-yl]carbamate]	–	–	EC50 (HCV genotype 1b replicon; genotype 1b replicon, K+ salt): 4.78 nM; IC50 ([1]; IC50 [gt-1b] (nM), NS3/4A genotype 1b, enzyme 0.2 nM, K+ salt): 0.009 nM
Cc1nc2ccc(Cl)cc2c2c1O[C@]1(CC2)C[C@H]2C(=O)N[C@]3(C(=O)NS(=O)(=O)C4(C)CC4)C[C@H]3/C=C\CCCCC[C@H](NC(=O)OC(C)(C)C(F)(F)F)C(=O)N2C1 [Example 333, 1,1,1-trifluoro-2-methylpropan-2-yl [(2R,6S,12Z,13aS,14aR,16aS)-9′-chloro-5′-methyl-14a-{[(1-methylcyclopropyl)sulfonyl]carbamoyl}-5,16-dioxo-1,1′,2′,5,6,7,8,9,10,11,13a,14,14a,15,16,16a-hexadecahydrospiro[cyclopropa[e]pyrrolo[1,2-a][1,4]diazacyclopentadecine-2,3′-pyrano[2,3-c]quinolin]-6-yl]carbamate]	10.3 nM	0.01 nM	–
Cc1ccnc(N[C@H]2CCCCC/C=C\[C@@H]3C[C@@]3(C(=O)NS(=O)(=O)C3(C)CC3)NC(=O)[C@@H]3C[C@]4(CCc5c(c(C)nc6ccccc56)O4)CN3C2=O)c1 [Example 350, (2R,6S,12Z,13aS,14aR,16aS)-5′-methyl-N-[(1-methylcyclopropyl)sulfonyl]-6-[(4-methylpyridin-2-yl)amino]-5,16-dioxo-1,1′,2′,6,7,8,9,10,11,13a,14,15,16,16a-tetradecahydrospiro[cyclopropa[e]pyrrolo[1,2-a][1,4]diazacyclopentadecine-2,3′-pyrano[2,3-c]quinoline]-14a(5H)-carboxamide]	2.84 nM	0.035 nM	–
CC(C)(C)OC(=O)N[C@H]1CCCCC/C=C\[C@@H]2C[C@@]2(C(=O)NS(=O)(=O)C2(C)CC2)NC(=O)[C@@H]2C[C@]3(CCc4c(c(CN5CCOCC5)nc5ccccc45)O3)CN2C1=O [Example 38, tert-butyl ((2R,6S,13aS,14aR,16aS,Z)-14a-(((1-methylcyclopropyl)sulfonyl)carbamoyl)-5′-(morpholinomethyl)-5,16-dioxo-1′,2′,3,5,6,7,8,9,10,11,13a,14,14a,15,16,16a-hexadecahydro-1H-spiro[cyclopropa[e]pyrrolo[1,2-a][1,4]diazacyclopentadecine-2,3′-pyrano[2,3-c]quinolin]-6-yl)carbamate]	22.1 nM	0.058 nM	–
COc1ccc2nc(C)c3c(c2c1)CC[C@]1(C[C@H]2C(=O)N[C@]4(C(=O)NS(=O)(=O)C5(C)CC5)C[C@H]4CCCCCCC[C@H](NC(=O)OC(C)(C)C(F)(F)F)C(=O)N2C1)O3 [Example 35]	–	0.016 nM	EC50 (HCV genotype 1b replicon; GETYPE1B|GT1B, genotype 1b replicon): 1.69 nM
CCCOC(=O)N[C@H]1CCCCC/C=C\[C@@H]2C[C@@]2(C(=O)NS(=O)(=O)C2(C)CC2)NC(=O)[C@@H]2C[C@]3(CCc4c(c(C5CC5)nc5ccc(OC)cc45)O3)CN2C1=O [Example 437, propyl [(2R,6S,12Z,13aS,14aR,16aS)-5′-cyclopropyl-9′-methoxy-14a-{[(1-methylcyclopropyl)sulfonyl]carbamoyl}-5,16-dioxo-1,1′,2′,5,6,7,8,9,10,11,13a,14,14a,15,16,16a-hexadecahydrospiro[cyclopropa[e]pyrrolo[1,2-a][1,4]diazacyclopentadecine-2,3′-pyrano[2,3-c]quinolin]-6-yl]carbamate]	–	–	EC50 (HCV genotype 1b replicon; HCV replicon, genotype 1b, K+ salt): 1 nM; IC50 ([1]; IC50 [gt-1b], NS3/4A protease TRF assay, genotype 1b enzyme 0.2 nM, K+ salt): 0.016 nM
COc1ccc2nc(C(F)(F)F)c3c(c2c1)[C@H](F)C[C@]1(C[C@H]2C(=O)N[C@]4(C(=O)NS(=O)(=O)C5(C)CC5)C[C@H]4/C=C\CCCCC[C@H](NC(=O)OC(C)(C)C)C(=O)N2C1)O3 [Example 427, tert-butyl [(l′R,2S,6S,12Z,13aS,14aR,16aS)-1′-fluoro-9′-methoxy-14a-{[(1-methylcyclopropyl)sulfonyl]carbamoyl}-5,16-dioxo-5′-(trifluoromethyl)-1,1′,2′,5,6,7,8,9,10,11,13a,14,14a,15,16,16a-hexadecahydrospiro[cyclopropa[e]pyrrolo[1,2-a][1,4]diazacyclopentadecine-2,3′-pyrano[2,3-c]quinolin]-6-yl]carbamate]	–	–	EC50 (HCV genotype 1b replicon; HCV replicon, genotype 1b): 1.46 nM; IC50 [1, 3]: 0.015 nM
COCCOc1ccc2nc(C)c3c(c2c1)CC[C@]1(C[C@H]2C(=O)N[C@]4(C(=O)NS(=O)(=O)C5(C)CC5)C[C@H]4/C=C\CCCCC[C@H](NC(=O)OC(C)(C)C(F)(F)F)C(=O)N2C1)O3 [Example 430, 1,1,1-trifluoro-2-methylpropan-2-yl [(2R,6S,12Z,13aS,14aR,16aS)-9′-(2-methoxyethoxy)-5′-methyl-14a-{[(1-methylcyclopropyl)sulfonyl]carbamoyl}-5,16-dioxo-1,1′,2′,5,6,7,8,9,10,11,13a,14,14a,15,16,16a-hexadecahydrospiro[cyclopropa[e]pyrrolo[1,2-a][1,4]diazacyclopentadecine-2,3′-pyrano[2,3-c]quinolin]-6-yl]carbamate]	–	–	EC50 (HCV genotype 1b replicon; HCV replicon, genotype 1b): 5.04 nM; IC50 [1, 3]: 0.026 nM
COc1ccc2nc(C(F)(F)F)c3c(c2c1)[C@](C)(F)C[C@]1(C[C@H]2C(=O)N[C@]4(C(=O)NS(=O)(=O)C5(C)CC5)C[C@H]4/C=C\CCCCC[C@H](NC(=O)OC(C)(C)C)C(=O)N2C1)O3 [Example 63, tert-Butyl ((1′R,2S,6S,13aS,14aR,16aS,Z)-1′-fluoro-9′-methoxy-1-methyl-14a-(((1-methylcyclopropyl)sulfonyl)carbamoyl)-5,16-dioxo-5′-(trifluoromethyl)-1′,2′,3,5,6,7,8,9,1011,13a,14,14a,15,16,16a-hexadecahydro-1H-spiro[cyclopropa[e]pyrrolo[1,2-a][1,4]diazacyclopentadecine-2,3′-pyrano[2,3-c]quinolin]-6-yl)carbamate]	0.245 nM	0.007 nM	–
CC(C)C1(OC(=O)N[C@H]2CCCCC/C=C\[C@@H]3C[C@@]3(C(=O)NS(=O)(=O)C3(C)CC3)NC(=O)[C@@H]3C[C@]4(CCc5c(c(C(F)(F)F)nc6ccccc56)O4)CN3C2=O)CC1 [Example 158, 1-(propan-2-yl)cyclopropyl [(2R,6S,12Z,13aS,14aR,16aS)-14a-{[(1-methylcyclopropyl)sulfonyl]carbamoyl}-5,16-dioxo-5′-(trifluoromethyl)-1,1′,2′,5,6,7,8,9,10,11,13a,14,14a,15,16,16a-hexadecahydrospiro[cyclopropa[e]pyrrolo[1,2-a][1,4]diazacyclopentadecine-2,3′-pyrano[2,3-c]quinolin]-6-yl]carbamate]	1.17 nM	0.02 nM	–
COc1ccc2nc(C3CC3)c3c(c2c1)CC[C@]1(C[C@H]2C(=O)N[C@]4(C(=O)NS(=O)(=O)C5(C)CC5)C[C@H]4/C=C\CCCCC[C@H](NC(=O)NC4CCCC4)C(=O)N2C1)O3 [Example 93, (2R,6S,12Z,13aS,14aR,16aS)-6-[(cyclopentylcarbamoyl)amino]-5′-cyclopropyl-9′-methoxy-N-[(1-methylcyclopropyl)sulfonyl]-5,16-dioxo-1,1′,2′,6,7,8,9,10,11,13a,14,15,16,16a-tetradecahydrospiro[cyclopropa[e]pyrrolo[1,2-a][1,4]diazacyclopentadecine-2,3′-pyrano[2,3-c]quinoline]-14a(5H)-carboxamide]	3.4 nM	0.007 nM	–
